Results reported in PMC7235871, “Excretion of the Polymyxin Derivative NAB739 in Murine Urine” (Antibiotics, 2020).
Positions of bridges follow the written chain, without caps; N, C: chain ends. Non-standard residues stand in square brackets, D forms with d. Residues, ends and D or L forms follow the SMILES beside them. *: point of attachment. Octanoyl = CCCCCCCC(=O)*; Dab = NCC[C@H](N)C(=O)O

Tests used:
[1] = parameters: method as in PMID 18840079; conditions: patients; cited from earlier work
[2] = Plasma concentrations (PK) in NMRI mice after SC administration; assay type: in vivo
Protocol: (§1) NMRI female mice (10–12 weeks old, 29–32 g, n = 64) were obtained from ENVIGO (The Netherlands) and housed prior to treatment under standard conditions (acclimatization period of 1 week, 21–23 °C, 12-h light/dark cycle, relative humidity 45%–65%) with unlimited access to food (R70 diet from Lantmännen) and water. The experimental procedures were performed in accordance with the guidelines of the European Community and local laws and policies (Directive 2010/63/EU), and all of the procedures were approved by Food and Veterinary Service, Riga, Latvia. Studies involving animals are reported in accordance with the ARRIVE guidelines. Animals were weighed on the day of the treatment (before treatment) to calculate the required amount of compound for the corresponding dose. For PK and excretion studies the mice were dosed subcutaneously (SC) via a bolus injection (injection volume 10 mL/kg). Four consecutive doses were administrated twice a day at 9:00 AM and 15:00 PM over the course of two days.
Blood samples were collected in tubes containing heparin. Blood was sampled from tail vein 15, 30, and 45 min after the first and last administrations of the compounds. Tubes were centrifuged at +4 °C 10,000× g for 3 min. Plasma samples were collected and stored at −20 °C until analysis.
(§2) Plasma and urine sample analyses were performed using the quantitative UPLC/MS/MS method. Calibration standards and quality control samples for plasma analysis were prepared by spiking blank mouse plasma (CD-1, anticoagulant Na Heparin, Innovative Research, USA) with a stock solution of analyte to achieve a nominal concentration ranging from 0.01 to 50 μg/mL for NAB739 and PMB. Calibration standards and quality control samples for urine analysis were prepared by spiking blank mouse urine (mouse CD-1 urine, Sera Laboratories International Ltd., UK) with a stock solution of analytes to achieve a nominal concentration from 0.04 to 30 μg/mL for NAB739 and PMB.
(§3) A sample volume of 20 μL (calibration standards, quality controls or analytical samples in plasma or urine) was transferred into the plastic tube and mixed with 100 μL of 1% formic acid solution in acetonitrile/methanol (3:1, v/v) mixture to precipitate proteins. The tubes were vortex- mixed and centrifuged at 10,000 rpm for 10 min. Then, 100 μL of supernatant was diluted with 400 μL of water and subjected to UPLC/MS analysis as follows:
(§4) UPLC system Acquity H-class (Waters) connected with triple quadrupole mass spectrometer Xevo TQ-S (Waters). UPLC conditions: Column—Acquity BEH C18 (2.1 × 50 mm, 1.7 µm); Mobile phase—A: 0.1% Formic acid aqueous solution, B: Acetonitrile; Gradient: Initial—90%A, 2.5 min—5% A, 4.0 min—5% A, 4.5 min—90% A, 6 min—90% A; Flow—0.3 mL/min; Column temperature—40 °C; Injection volume—1 μL (NAB739) or 5 μL (PMB). MS conditions: Ionization—ESI positive mode; Capillary voltage—1.0 kV; ESI source temperature—120 °C; Desolvation gas (N2) flow—800 L/h; Desolvation temperature—600 °C.

[3] = Observation of adverse effects during administration in mice; assay type: in vivo, NMRI mice; conditions: SC, doses 0.25, 0.5, 1, 2 and 4 mg/kg, single and four-times-repeated
Protocol: as §1

E. coli = conditions: murine E. coli pyelonephritis, cited from earlier work; for Half maximal effective dose (ED50) in kidneys: bacterial burden in kidneys
[4] = Urinary elimination in NMRI mice after SC administration (pooled 0–3 h urine); assay type: in vivo
Protocol: as §1
For PK study, before the administration of the compound, mice voiding was stimulated. Then compound was administrated SC. Mice were put in separate cages with LabSand (USA) and urine was collected during the next 3 h. At the end of each 1-h period voiding was stimulated by gentle massage of the belly. Urine samples from each mouse were pooled in one tube. Urine volume was determined by weighing of the pooled urine sample.
as §2, §3, §4

[5] = cynomolgus monkey, in vivo; cited from earlier work
[6] = cynomolgus monkey, in vivo; cited from earlier work; remark: listed apart in the source

For polymyxin B [PMB, reference compound], the “Part of dose excreted in urine” value [1] is listed as “less than 1%”, the “Plasma concentrations after the first versus the last administration” value ([2]; SC, four doses) is listed as “similar” and the “Time at which Cmax was observed after administration” value ([2]; plasma, SC, all doses 0.25–4 mg/kg) is listed as 30 min. For the same compound, the “Linearity of Cmax and dose–response relationship, correlation coefficient” value ([2]; plasma, first SC administration, doses 0.25–4 mg/kg) was 0.975, the “Adverse effects during administration” value [3] was “no adverse effects were observed” and the “Half maximal effective dose (ED50) in kidneys” value (E. coli) was 2.1 mg/kg. For the same compound, the “Detection in urine samples” value ([4]; SC dose of 4 mg/kg, pooled 0–3 h urine) was “not detected” and the Detection in urine ([4]; after the fourth SC dose at 4 mg/kg, detection limit 0.6 µg/mL) was “not found”.
For CCCCCCCC(=O)N[C@H](C(=O)N[C@H](CO)C(=O)N[C@H]1CCNC(=O)[C@H]([C@@H](C)O)NC(=O)[C@H](CCN)NC(=O)[C@H](CCN)NC(=O)[C@H](CC(C)C)NC(=O)[C@@H](Cc2ccccc2)NC(=O)[C@H](CCN)NC1=O)[C@@H](C)O [NAB739] (Octanoyl-T[dS][Dab][Dab][dF]L[Dab][Dab]T; lactam 3-C; N-terminus assumed), the Plasma concentration ([2]; female, NMRI, mouse, in vivo, sc, 0.5 mg/kg) is listed as “exceeded 1 µg/mL”, the “Linearity of Cmax and dose–response relationship, correlation coefficient” value ([2]; mouse, in vivo, sc) is listed as 0.9987 and the Excretion in urine [5] is listed as “excreted in the cynomolgus urine at a very significant extent”. For the same compound, the “Half maximal effective dose (ED50) in kidneys” value (E. coli) was 0.24 mg/kg, the “Fold lower dose than PMB reducing bacterial burden in kidney, urine and bladder” value (E. coli) was “approximately 10 fold” and the Urinary concentration ([4]; female, NMRI, mouse, in vivo, sc, 4 mg/kg) was “above 35 µg/mL”. The “Relative elimination by urine higher after the last dose than after the first dose, average” value ([4]; mouse, in vivo) was 26%, the “Urine concentration higher after the last dose compared to the first dose, average” value ([4]; mouse, in vivo) was 27% and the “Detection in urine samples” value ([4]; mouse, in vivo, sc, 4 mg/kg) was “found in all pooled (0–3 h) urine samples”. The “Nephrotoxicity compared to PMB” value [6] was “less nephrotoxic”.
